Marks after values point to notes of the source that are not given here.
Key:
Streptokinase = Streptokinase (Homo sapiens, UniProt P00747); test: Chromogenic substrate assay, Ki (Dixon); type: biochemical; conditions: for Ki: Streptokinase
Protein Ca = target: T1, Protein Ca (Homo sapiens, UniProt P04070); test: Chromogenic substrate assay, Ki (Dixon); type: biochemical; conditions: for Ki: Protein Ca
T1 construct: thrombin versus trypsin, factor Xa, elastase, plasmin, protein Ca, streptokinase, tPA, and urokinase
T1 sequence (P04070 212-450 limits assumed): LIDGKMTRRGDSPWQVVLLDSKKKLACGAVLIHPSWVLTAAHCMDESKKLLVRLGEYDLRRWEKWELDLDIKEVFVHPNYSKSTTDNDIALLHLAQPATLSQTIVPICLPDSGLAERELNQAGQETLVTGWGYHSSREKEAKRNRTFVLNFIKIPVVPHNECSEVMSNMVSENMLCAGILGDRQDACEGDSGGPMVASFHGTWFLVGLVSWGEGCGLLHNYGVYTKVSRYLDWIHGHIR
T1 sequence (P04070 43-197 limits assumed): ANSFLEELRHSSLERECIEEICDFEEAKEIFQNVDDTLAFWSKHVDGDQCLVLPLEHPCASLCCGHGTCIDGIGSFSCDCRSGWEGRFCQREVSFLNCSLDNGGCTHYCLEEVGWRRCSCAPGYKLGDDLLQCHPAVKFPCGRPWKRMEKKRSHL

[1] = In vivo tail bleeding time; design: species or system C57BL/6 mice; conditions: mice, i.v. injection
Description: Tail bleeding times were measured by using the method of Dejana et al.[63],[64]. Briefly, C57BL/6 mice were fasted overnight prior to the experiments. One hour after the i.v. administration of JJ1, the tails of the mice were transected at 2 mm from their tips. The bleeding time was defined as the time elapsed until the bleeding stopped. Bleeding times exceeding 15 min were recorded as lasting for 15 min.

Factor Xa = target: T2, Factor Xa (Homo sapiens, UniProt P00742); test: Chromogenic substrate assay, Ki (Dixon); type: biochemical; conditions: for Ki: Factor Xa
T2 construct: thrombin versus trypsin, factor Xa, elastase, plasmin, protein Ca, streptokinase, tPA, and urokinase; purchased Haematologic Technologies (Essex Junction, VT)
T2 sequence (P00742 235-488 limits assumed): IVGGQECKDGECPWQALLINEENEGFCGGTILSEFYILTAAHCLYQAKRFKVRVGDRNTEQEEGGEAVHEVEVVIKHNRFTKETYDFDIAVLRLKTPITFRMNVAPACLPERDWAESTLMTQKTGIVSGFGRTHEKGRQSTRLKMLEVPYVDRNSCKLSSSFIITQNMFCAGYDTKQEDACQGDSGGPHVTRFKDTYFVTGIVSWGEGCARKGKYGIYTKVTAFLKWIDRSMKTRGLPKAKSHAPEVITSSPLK
T2 sequence (P00742 41-179 limits assumed): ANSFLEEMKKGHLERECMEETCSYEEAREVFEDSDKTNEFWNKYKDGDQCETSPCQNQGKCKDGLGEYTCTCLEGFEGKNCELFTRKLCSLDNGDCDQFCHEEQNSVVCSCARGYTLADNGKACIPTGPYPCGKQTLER

Trypsin = test: Chromogenic substrate assay, Ki (Dixon); type: biochemical, human; conditions: for Ki: Trypsin, mean ± SD (n = 5)
Description: (§1) Chromogenic substrate assays were performed using a Labsystems IEMS (Cergy Pontoise, France) microtiter plate reader. K i values were calculated according to the method of Dixon[65]. In each assay, the compound was tested at a minimum of seven concentrations, in duplicate, to obtain an inhibition curve. The following general procedures were adopted for each assay. In a 96-well microtiter plate, 25 μL of inhibitor solution or buffer was added to 50 μL of substrate. The enzyme solution (25 μL) was added just before the plate was placed in the microtiter plate reader for 1 h at 37 °C. The hydrolysis of the substrate yields p-nitroaniline, which was continuously monitored spectrophotometrically at 405 nm. The maximal initial reaction rates were calculated and expressed as millioptical density per minute.

human plasma [2] = test: In vitro PT clotting time; type: biochemical; conditions: in vitro, 5.0 μM
Description: (§2) The aPTT and PT were determined using a Thrombotimer (Behnk Elektronik, Norderstedt, Germany) in accordance with the manufacturer’s instructions and as previously described. Briefly, citrated normal human plasma (90 μL) was mixed with 10 μL JJ1 and incubated for 1 min at 37 °C. Subsequently, the aPTT assay reagent (100 μL) was added, the plasma sample was incubated for an additional 1 min at 37 °C, 20 mM CaCl2 (100 μL) was added, and the clotting times were recorded. For the PT assays, citrated normal human plasma (90 μL) was mixed with 10 μL JJ1 stock solution and was incubated for 1 min at 37 °C. The PT assay reagent (200 μL), which had been pre-incubated for 10 min at 37 °C, was subsequently added and the clotting time was recorded. The PT results were expressed in seconds and as International Normalized Ratios (INR): INR = (PT sample/PT control)^ISI, where ISI = international sensitivity index. The aPTT results were also expressed in seconds. All experimental protocols (KNUH 2012-01-010) were approved by the Institutional Review Board of Kyungpook National University Hospitals (Daegu, Republic of Korea).

Plasmin = target: T3, Plasmin (Homo sapiens, UniProt P00747); test: Chromogenic substrate assay, Ki (Dixon); type: biochemical; conditions: for Ki: Plasmin
T3 construct: thrombin versus trypsin, factor Xa, elastase, plasmin, protein Ca, streptokinase, tPA, and urokinase
T3 sequence (P00747 581-810 limits assumed): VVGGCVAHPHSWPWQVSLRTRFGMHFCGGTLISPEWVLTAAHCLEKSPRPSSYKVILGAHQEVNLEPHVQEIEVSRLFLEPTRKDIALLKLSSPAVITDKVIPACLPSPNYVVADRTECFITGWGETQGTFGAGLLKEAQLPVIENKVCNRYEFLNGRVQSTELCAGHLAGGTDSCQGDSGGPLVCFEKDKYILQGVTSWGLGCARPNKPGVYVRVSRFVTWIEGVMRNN
T3 sequence (P00747 97-580 limits assumed): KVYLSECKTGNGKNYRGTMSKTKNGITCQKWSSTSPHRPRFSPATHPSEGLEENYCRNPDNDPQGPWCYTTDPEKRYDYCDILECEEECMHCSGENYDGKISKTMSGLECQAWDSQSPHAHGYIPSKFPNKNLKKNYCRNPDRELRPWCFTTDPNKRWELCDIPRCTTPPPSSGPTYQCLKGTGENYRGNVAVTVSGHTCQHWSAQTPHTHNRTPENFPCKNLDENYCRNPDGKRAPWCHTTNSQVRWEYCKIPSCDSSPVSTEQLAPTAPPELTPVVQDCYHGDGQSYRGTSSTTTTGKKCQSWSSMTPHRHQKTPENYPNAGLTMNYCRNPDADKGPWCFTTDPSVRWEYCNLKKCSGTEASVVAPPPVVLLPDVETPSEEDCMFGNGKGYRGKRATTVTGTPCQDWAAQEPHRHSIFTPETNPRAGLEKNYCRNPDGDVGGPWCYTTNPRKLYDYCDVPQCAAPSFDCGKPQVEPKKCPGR

human plasma [3] = test: In vitro aPTT clotting time; type: biochemical; conditions: in vitro, 5.0 μM
Description: as §2

tPA = tPA (Homo sapiens, UniProt P00750); test: Chromogenic substrate assay, Ki (Dixon); type: biochemical; conditions: for Ki: tPA
Sequence of tPA (P00750 36-562): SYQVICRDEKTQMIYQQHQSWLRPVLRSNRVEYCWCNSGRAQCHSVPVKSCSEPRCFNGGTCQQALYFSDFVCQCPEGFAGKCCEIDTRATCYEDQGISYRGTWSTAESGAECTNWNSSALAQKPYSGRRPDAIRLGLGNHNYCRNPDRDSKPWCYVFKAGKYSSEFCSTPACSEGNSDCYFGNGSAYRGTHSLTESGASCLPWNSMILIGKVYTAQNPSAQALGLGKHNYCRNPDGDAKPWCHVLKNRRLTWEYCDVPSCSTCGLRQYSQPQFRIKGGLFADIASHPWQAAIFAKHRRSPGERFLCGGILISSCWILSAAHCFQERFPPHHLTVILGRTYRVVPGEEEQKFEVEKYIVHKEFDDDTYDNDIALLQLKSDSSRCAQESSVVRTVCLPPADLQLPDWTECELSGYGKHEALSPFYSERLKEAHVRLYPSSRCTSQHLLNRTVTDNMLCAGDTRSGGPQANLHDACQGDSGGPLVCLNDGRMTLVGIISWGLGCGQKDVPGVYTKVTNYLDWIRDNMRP

[4] = FeCl3-induced arterial thrombosis model; type: in vivo, C57BL/6 mice; conditions: mice, 150 μg/mouse
Description: The FeCl3-induced thrombosis mouse model was established as previously described. Male C57BL/6 mice were fasted overnight and were administered JJ1 in DMSO by intravenous injection. Then, mice were anesthetized using 3% isoflurane (Forane®, Choongwae Pharma. Corp., Seoul, Korea) and injected intravenously with 0.1 mL 0.1% rhodamine 6 G (Sigma). A testicular artery (200 μm in diameter) was carefully exposed and a cotton thread (200 μm in diameter) saturated with 0.25 mol/L FeCl3 was applied to the adventitial surface. After 5 min, the cotton thread was removed, and the wound was flushed with saline solution. Thrombus formation was monitored at 35 °C by 3-dimensional imaging as previously described. The size and time of thrombus formation were monitored, and the findings were scored as follows: no thrombus, 0; small thrombus (50 μm × 75 μm), 1; medium-sized thrombus (100 μm × 150 μm), 2; large thrombus (200 μm × 300 μm), 3. The time from FeCl3-mediated endothelial injury to occlusion of the testicular artery by a large thrombus was measured.

Urokinase = Urokinase (Homo sapiens, UniProt P00749); test: Chromogenic substrate assay, Ki (Dixon); type: biochemical; conditions: for Ki: Urokinase
[5] = tested on: neuropeptide Y receptor type 5; design: method as in PMID 21948594; conditions: not reported in publications; cited from earlier work
[6] = design: method as in PMID 21948594; conditions: not reported in publications; cited from earlier work
human α-thrombin = target: T4, human α-thrombin (Homo sapiens, UniProt P00734); test: Chromogenic substrate assay, Ki (Dixon); type: biochemical
T4 construct: purchased Haematologic Technologies (Essex Junction, VT)

thrombin [7] = target: T5, thrombin (Homo sapiens, UniProt P00734); test: Thrombin activity assay (amidolytic activity, S-2238); type: biochemical; conditions: α-Thrombin, chromogenic substrate; read-out: IC50, inhibition of amidolytic activity of thrombin (converted)
T5 construct: thrombin solution (150 μL, 10 U/mL) was added; purchased Haematologic Technologies (Essex Junction, VT)
Description: Following a 2-min incubation at 37 °C, thrombin solution (150 μL, 10 U/mL) was added, followed by incubation at 37 °C for 1 min. A solution of the thrombin substrate, S-2238, (150 μL, 1.5 mM) solution was subsequently added and the absorbance at 405 nm was monitored for 120 s using a spectrophotometer (TECAN, Männedorf, Switzerland).

Elastase = target: T6, Elastase (Homo sapiens, UniProt P08246); test: Chromogenic substrate assay, Ki (Dixon); type: biochemical; conditions: K i Elastase/K i α-thrombin
T6 sequence (P08246 30-247): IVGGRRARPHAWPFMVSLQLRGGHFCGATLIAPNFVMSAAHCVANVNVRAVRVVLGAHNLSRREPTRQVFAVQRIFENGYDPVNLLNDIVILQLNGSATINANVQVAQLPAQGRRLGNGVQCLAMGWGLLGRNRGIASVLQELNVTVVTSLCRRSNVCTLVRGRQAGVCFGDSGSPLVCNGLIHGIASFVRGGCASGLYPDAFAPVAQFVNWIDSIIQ
Description: as §1

human plasma [8] = test: In vitro PT clotting time; type: biochemical; conditions: at the maximum antithrombotic dose
human plasma [9] = test: In vitro aPTT clotting time; type: biochemical; conditions: at the maximum antithrombotic dose
thrombin [10] = target: T5, thrombin; test: Enzyme-based assay of purchased virtual screening molecules, single dose; type: biochemical; conditions: single concentration of 50 μM
Source text: Prior to the high-throughput virtual screening, we selected the best crystal structure for docking with DOCK 3.6[17] using the selected inhibitors and their physicochemically matched but topologically different decoys. […] Because the earlier enrichment of true positives is more important for high throughput SBVS, we used the value of LogAUC as a metric, selecting 2CF9-H[18] as the best structure. […] Besides, the enrichment at 1% (EF1) was 37.1. The values of LogAUC and EF1 were approximately two-fold higher than the averages (26.1 for LogAUC and 17.1 for EF1) (Figs 1 and S1). Some structures had higher AUC values than that of 2CF9-H, but the value of LogAUC was the highest for 2CF9-H (Fig. S1). The optimization necessitated the calculations of more than 2 million protein and ligand pairs. The high speed of DOCK 3.6 and the in-house Linux cluster system consisting of 128 cores efficiently managed the calculations in three days. Of the candidate molecules having the lowest scores in the high-throughput SBVS, we chose the molecules with desirable geometries and physicochemical properties by a simple manual and visual inspection. […] It is known that the scoring function of virtual screening itself is insufficient to capture such an abnormality. Table S1 and Fig. S2 list the top 40 molecules, which were selected through high-throughput SBVS; we purchased these molecules to measure enzymatic inhibitory activity.

Sequence of Streptokinase (P00747 581-810 limits assumed): as the sequence (P00747 581-810 limits assumed) above

Q: For CC1CNc2c(cccc2S(=O)(=O)N[C@@H](CCCNC(=N)N)C(=O)N2CC[C@@H](C)C[C@@H]2C(=O)O)C1 (stereo partly drawn) [Argatroban], which Ki (Streptokinase) is on record?
A: Its Ki is > 250 µM.

Q: And the Ki (Protein Ca)?
A: The Ki was > 250 µM.

Q: What about the Tail bleeding time ([1]; 5.08 μg/mouse) of the same compound?
A: The Tail bleeding time was 62.2 ± 0.8 s.

Q: What about the Ki (Factor Xa) of the same compound?
A: The Ki was > 250 µM.

Q: What about the Ki (Trypsin) of the same compound?
A: Its Ki is 4.2 ± 0.5 µM.

Q: What about the PT (human plasma [2]) of the same compound?
A: Its PT is 27.4 ± 0.7 s.

Q: What about the “PT (INR)” value (human plasma [2]) of the same compound?
A: The value was 7.40* INR.

Q: And the Ki (Plasmin)?
A: Its Ki is > 250 µM.

Q: And the aPTT (human plasma [3])?
A: The aPTT was 61.4 ± 0.8 s.

Q: And the Ki (tPA)?
A: The Ki was > 250 µM.

Q: And the Thrombus size score ([4]; 60 min after FeCl3-treatment, score 0-3)?
A: Its Thrombus size score is 1.15 ± 0.12.

Q: And the “Time to large thrombus formation” value ([4]; FeCl3-induced thrombosis)?
A: Its value is 61.2 ± 5.1 min.

Q: What about the Ki (Urokinase) of the same compound?
A: Its Ki is > 250 µM.

Q: With c1ccc(Nc2nc(NC3CCCCC3)nc3ccccc23)cc1 [CHEMBL17914] as the compound, how does the “Activity linked in ChEMBL” value [5] read?
A: The value was “linked with the inhibition of neuropeptide Y receptor type 5”.

Q: For c1ccc2c(NC3CCCC3)nc(Nc3ccc4c(c3)OCO4)nc2c1 [CHEMBL578118], which “Activity linked in ChEMBL” value [6] is on record?
A: Its value is “antimalarial effects”.

Q: For Oc1ccccc1Nc1nc(NC2CCCC2)c2ccccc2n1 [CHEMBL581623], which “Activity linked in ChEMBL” value [6] is on record?
A: The value was “antimalarial effects”.

Q: Which Selectivity ratio (Streptokinase) does the source give for CN[C@H](Cc1ccccc1)C(=O)N1CCC[C@H]1C(=O)N[C@H](C=O)CCCN=C(N)N [Efegatran] here?
A: Its Selectivity ratio is 82.

Q: And the Ki (Streptokinase)?
A: The Ki was 1.4 ± 0.11 µM.

Q: And the Selectivity ratio (Protein Ca)?
A: The Selectivity ratio was 70.

Q: What about the Ki (Protein Ca) of the same compound?
A: The Ki was 1.2 ± 0.15 µM.

Q: What about the Selectivity ratio (human α-thrombin; K i enzyme/K i α-thrombin) of the same compound?
A: The Selectivity ratio was 1.

Q: What about the Ki (human α-thrombin; mean ± SD (n = 5)) of the same compound?
A: Its Ki is 0.017 ± 0.0003 µM.

Q: What about the Tail bleeding time ([1]; 4.17 μg/mouse) of the same compound?
A: The Tail bleeding time was 47.4 ± 1.1 s.

Q: What about the Selectivity ratio (Factor Xa) of the same compound?
A: Its Selectivity ratio is 5411.

Q: And the Ki (Factor Xa)?
A: Its Ki is 92 ± 9 µM.

Q: And the Selectivity ratio (Trypsin; K i Trypsin/K i α-thrombin)?
A: Its Selectivity ratio is 0.65.

Q: What about the Ki (Trypsin) of the same compound?
A: Its Ki is 0.011 ± 0.0041 µM.

Q: And the PT (human plasma [2])?
A: Its PT is 19.2 ± 0.4 s.

Q: And the “PT (INR)” value (human plasma [2])?
A: Its value is 3.15* INR.

Q: And the IC50 (thrombin [7])?
A: The IC50 was 0.025 µM.

Q: What about the Selectivity ratio (Elastase) of the same compound?
A: Its Selectivity ratio is >14,000.

Q: And the “Prolongation of PT” value (human plasma [8])?
A: Its value is 1.61 fold.

Q: What about the Selectivity ratio (Plasmin) of the same compound?
A: The Selectivity ratio was 28.

Q: What about the Ki (Plasmin) of the same compound?
A: Its Ki is 0.48 ± 0.04 µM.

Q: And the aPTT (human plasma [3])?
A: Its aPTT is 44.2 ± 0.6 s.

Q: What about the Selectivity ratio (tPA) of the same compound?
A: Its Selectivity ratio is 88.

Q: What about the Ki (tPA) of the same compound?
A: The Ki was 1.5 ± 0.3 µM.

Q: And the “Prolongation of aPTT” value (human plasma [9])?
A: The value was 1.86 fold.

Q: What about the Selectivity ratio (Urokinase) of the same compound?
A: The Selectivity ratio was 147.

Q: And the Ki (Urokinase)?
A: Its Ki is 2.5 ± 0.3 µM.

Q: Which “Degree of inhibition in the enzyme-based assay” value (thrombin [10]) does the source give for CCN(c1cccc(C)c1)S(=O)(=O)c1cc([N+](=O)[O-])ccc1C [ZINC04991109] here?
A: Its value is “inhibitory effects”.

Q: For COc1ccc(C(=O)NCc2ccco2)cc1S(=O)(=O)N1CCCCC1 [ZINC09063750], which “Degree of inhibition in the enzyme-based assay” value (thrombin [10]) is on record?
A: Its value is “inhibitory effects”.

— PMC5665883, “Antithrombotic properties of JJ1, a potent and novel thrombin inhibitor” (Scientific Reports, 2017)
